Source: patent US7855292B2, “Sulfonamide compounds” (Janssen Pharmaceutica NV, priority 2004, dated 2010)

Columns and labels:
CCK2 receptor = target: T1, CCK2 receptor (Homo sapiens, UniProt P32239); assay: CCK2 binding assay ([125I]-BH-CCK-8S displacement, HEKZFP membranes); conditions: membranes of doxycycline-induced HEKZFP cells, 20 pM [125I]-BH-CCK-8S, 60 min at 21±3° C.; for Ki: read-out: CCK2 pKi (converted)
T1 construct: analyzed for ZFP expression as well as CCK2R induction upon addition of doxycycline to the culture medium; endogenous in cells
T1 sequence (P32239 1-447): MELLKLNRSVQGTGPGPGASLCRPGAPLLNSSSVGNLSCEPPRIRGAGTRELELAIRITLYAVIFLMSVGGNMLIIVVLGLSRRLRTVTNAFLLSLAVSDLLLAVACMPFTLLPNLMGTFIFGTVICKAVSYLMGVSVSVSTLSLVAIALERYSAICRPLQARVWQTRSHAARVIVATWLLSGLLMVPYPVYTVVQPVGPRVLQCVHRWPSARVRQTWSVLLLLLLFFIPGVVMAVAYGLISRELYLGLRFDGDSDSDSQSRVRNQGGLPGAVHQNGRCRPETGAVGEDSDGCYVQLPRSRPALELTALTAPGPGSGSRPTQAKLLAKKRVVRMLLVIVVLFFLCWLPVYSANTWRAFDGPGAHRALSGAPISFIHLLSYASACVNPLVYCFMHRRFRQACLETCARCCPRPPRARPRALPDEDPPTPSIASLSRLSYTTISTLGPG

CCK-1 receptor = target: T2, CCK-1 receptor (Homo sapiens, UniProt P32238); assay: CCK1 binding assay ([125I]-BH-CCK-8S displacement, CHO-K1 membranes); conditions: membranes of CHO-K1 cells stably transfected with the CCK-1 receptor, 20 pM [125I]-BH-CCK-8S, 0.3 μM PD-134,308 present, 60 min at 21±3° C.; for Ki: read-out: CCK1 pKi (converted)
T2 construct: expressed in transfected cells; host or cells: CHO-K1
T2 sequence (P32238 1-428): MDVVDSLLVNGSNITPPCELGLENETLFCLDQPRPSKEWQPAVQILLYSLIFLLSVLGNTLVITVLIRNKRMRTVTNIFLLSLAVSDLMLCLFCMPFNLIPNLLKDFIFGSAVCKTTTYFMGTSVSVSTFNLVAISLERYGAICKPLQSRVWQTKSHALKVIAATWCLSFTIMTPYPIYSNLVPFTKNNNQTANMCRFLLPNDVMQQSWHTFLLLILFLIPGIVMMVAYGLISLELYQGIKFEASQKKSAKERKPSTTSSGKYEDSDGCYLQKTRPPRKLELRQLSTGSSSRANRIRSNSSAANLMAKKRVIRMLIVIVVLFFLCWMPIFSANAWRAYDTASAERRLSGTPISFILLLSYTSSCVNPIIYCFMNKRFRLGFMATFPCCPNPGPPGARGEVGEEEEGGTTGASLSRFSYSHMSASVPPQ
In short: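 Membranes from CHO-K1 cells stably expressing CCK-1 incubated 1 h at 21±3° C with 20 pM [125I]-BH-CCK-8S in HEPES buffer pH 7.2 containing 0.3 μM PD-134,308 to block CCK-2. Bound radioactivity read by gamma counting after filtration. pKi derived via Cheng-Prusoff, with specific binding defined using 2-NAP.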

SMILES	Ki (CCK2 receptor) [nM]	Ki (CCK-1 receptor) [nM]	CCK2 pKi (CCK2 receptor)	CCK1 pKi (CCK-1 receptor)
O=C(NC1Cc2ccccc2C1)c1ccc(Cl)cc1NS(=O)(=O)c1cccc2nsnc12 [Example 50, 2-(Benzo[1,2,5]thiadiazole-4-sulfonylamino)-4-chloro-N-indan-2-yl-benzamide]	6310	631	–	–
C[C@@H](NC(=O)c1ccc(Cl)cc1NS(=O)(=O)c1cccc2nsnc12)[C@@H](O)c1ccc(Cl)cc1 [Example 55, 2-(Benzo[1,2,5]thiadiazole-4-sulfonylamino)-4-chloro-N-[(1R,2S)-2-(4-chloro-phenyl)-2-hydroxy-1-methyl-ethyl]-benzamide]	1000	39.8	–	–
C[C@H](c1ccc(Cl)c(Cl)c1)[C@H](NC(=O)c1ccc(Cl)cc1NS(=O)(=O)c1cccc2nsnc12)C(=O)O [Example 56, (2S,3R)-2-[2-(Benzo[1,2,5]thiadiazole-4-sulfonylamino)-4-chloro-benzoylamino]-3-(3,4-dichloro-phenyl)-butyric acid]	–	–	6.8	6.3
O=C(N[C@H](Cc1ccc(Cl)c(Cl)c1)C(=O)O)c1ccc(I)cc1NS(=O)(=O)c1cccc2nccnc12 [Example 60, (R)-3-(3,4-Dichloro-phenyl)-2-[4-iodo-2-(quinoxaline-5-sulfonylamino)-benzoylamino]-propionic acid]	398	79.4	–	–
O=C(N[C@H](Cc1ccc(Cl)cc1)C(=O)O)c1cc(Cl)ccc1NS(=O)(=O)c1cccc2nsnc12 [Example 62, (R)-2-[2-(Benzo[1,2,5]thiadiazole-4-sulfonylamino)-5-chloro-benzoylamino]-3-(4-chloro-phenyl)-propionic acid]	3160	316	–	–
O=C(O)C[C@H](Cc1ccc(Cl)c(Cl)c1)NC(=O)c1ccc(Cl)cc1NS(=O)(=O)c1cccc2nccnc12 [Example 64, (S)-3-[4-Chloro-2-(quinoxaline-5-sulfonylamino)-benzoylamino]-4-(3,4-dichloro-phenyl)-butyric acid]	100	1580	–	–
COC(=O)[C@H](Cc1csc2ccccc12)NC(=O)c1ccc(Cl)cc1NS(=O)(=O)c1cccc2nccnc12 [Example 65, (S)-3-Benzo[b]thiophen-3-yl-2-[4-chloro-2-(quinoxaline-5-sulfonylamino)-benzoylamino]-propionic acid methyl ester]	794	316	–	–
O=C(N[C@@H](Cc1csc2ccccc12)C(=O)O)c1ccc(Cl)cc1NS(=O)(=O)c1cccc2nccnc12 [Example 66, (S)-3-Benzo[b]thiophen-3-yl-2-[4-chloro-2-(quinoxaline-5-sulfonylamino)-benzoylamino]-propionic acid]	501	2000	–	–
COC(=O)[C@H](Cc1ccc(Cl)cc1)NC(=O)c1cc(Cl)c(Cl)cc1NS(=O)(=O)c1cccc2nsnc12 [Example 67, (S)-2-[2-(Benzo[1,2,5]thiadiazole-4-sulfonylamino)-4,5-dichloro-benzoylamino]-3-(4-chloro-phenyl)-propionic acid methyl ester]	251	200	–	–
O=C(N[C@@H](Cc1ccc(Cl)cc1)C(=O)O)c1cc(Cl)c(Cl)cc1NS(=O)(=O)c1cccc2nsnc12 [Example 68, (S)-2-[2-(Benzo[1,2,5]thiadiazole-4-sulfonylamino)-4,5-dichloro-benzoylamino]-3-(4-chloro-phenyl)-propionic acid]	31.6	316	–	–
COC(=O)[C@@H](Cc1ccc(Cl)cc1)NC(=O)c1ccc(Cl)cc1NS(=O)(=O)c1ccc(F)cc1F [Example 69, (R)-2-[4-Chloro-2-(2,4-difluoro-benzenesulfonylamino)-benzoylamino]-3-(4-chloro-phenyl)-propionic acid methyl ester]	7940	63.1	–	–
O=C(NCCc1ccc(Cl)cc1Cl)c1ccc(Cl)cc1NS(=O)(=O)c1cccc2nsnc12 [Example 70, 2-(Benzo[1,2,5]thiadiazole-4-sulfonylamino)-4-chloro-N-[2-(2,4-dichloro-phenyl)-ethyl]-benzamide]	6310	200	–	–
COC(=O)[C@H](Cc1ccc(Cl)cc1)NC(=O)c1ccc(Cl)cc1NS(=O)(=O)c1ccc(F)cc1F [Example 71, (S)-2-[4-Chloro-2-(2,4-difluoro-benzenesulfonylamino)-benzoylamino]-3-(4-chloro-phenyl)-propionic acid methyl ester]	2510	126	–	–
CC(CNC(=O)c1ccc(I)cc1NS(=O)(=O)c1cccc2nsnc12)c1ccc(Cl)cc1 (stereo not drawn) [Example 72, 2-(Benzo[1,2,5]thiadiazole-4-sulfonylamino)-N-[2-(4-chloro-phenyl)-propyl]-4-iodo-benzamide]	501	79.4	–	–
C[C@H](NC(=O)c1ccc(Cl)cc1NS(=O)(=O)c1cccc2nsnc12)C(O)(c1ccccc1)c1ccccc1 [Example 74, (S)-2-(Benzo[1,2,5]thiadiazole-4-sulfonylamino)-4-chloro-N-(2-hydroxy-1-methyl-2,2-diphenyl-ethyl)-benzamide]	7940	316	–	–
O=C(NCCc1ccc(Cl)cc1Cl)c1ccccc1NS(=O)(=O)c1cccc2nsnc12 [Example 75, 2-(Benzo[1,2,5]thiadiazole-4-sulfonylamino)-N-[2-(2,4-dichloro-phenyl)-ethyl]-benzamide]	3980	1000	–	–
O=C(N[C@@H](Cc1ccc(F)cc1)C(=O)O)c1ccc(Cl)cc1NS(=O)(=O)c1cccc2nsnc12 [Example 76, (S)-2-[2-(Benzo[1,2,5]thiadiazole-4-sulfonylamino)-4-chloro-benzoylamino]-3-(4-fluoro-phenyl)-propionic acid]	39.8	3160	–	–
O=C(N[C@@H](Cc1cccc(Cl)c1)C(=O)O)c1ccc(Cl)cc1NS(=O)(=O)c1cccc2nccnc12 [Example 78, (S)-3-(3-Chloro-phenyl)-2-[4-chloro-2-(quinoxaline-5-sulfonylamino)-benzoylamino]-propionic acid]	31.6	3980	–	–
O=C(NCCc1ccc(Br)cc1)c1ccc(Cl)cc1NS(=O)(=O)c1c(F)cccc1F [Example 80, N-[2-(4-Bromo-phenyl)-ethyl]-4-chloro-2-(2,6-difluoro-benzenesulfonylamino)-benzamide]	1580	100	–	–
CC(CNC(=O)c1c(Cl)cccc1NS(=O)(=O)c1cccc2nsnc12)c1ccc(Cl)c(Cl)c1 (stereo not drawn) [Example 81, 2-(Benzo[1,2,5]thiadiazole-4-sulfonylamino)-6-chloro-N-[2-(3,4-dichloro-phenyl)-propyl]-benzamide]	2000	794	–	–
O=C(O)C[C@@H](Cc1ccc(Cl)c(Cl)c1)NC(=O)c1ccc(Cl)cc1NS(=O)(=O)c1cccc2nccnc12 [Example 82, (R)-3-[4-Chloro-2-(quinoxaline-5-sulfonylamino)-benzoylamino]-4-(3,4-dichloro-phenyl)-butyric acid]	7940	794	–	–
O=C(N[C@@H](Cc1ccc(Cl)cc1)C(=O)O)c1cc(Cl)ccc1NS(=O)(=O)c1cccc2nsnc12 [Example 83, (S)-2-[2-(Benzo[1,2,5]thiadiazole-4-sulfonylamino)-5-chloro-benzoylamino]-3-(4-chloro-phenyl)-propionic acid]	251	1580	–	–
COC(=O)C[C@H](Cc1ccc(Cl)cc1)NC(=O)c1ccc(Cl)cc1NS(=O)(=O)c1cccc2nccnc12 [Example 88, (S)-4-(4-Chloro-phenyl)-3-[4-chloro-2-(quinoxaline-5-sulfonylamino)-benzoylamino]-butyric acid methyl ester]	631	6310	–	–
O=C(O)C[C@H](Cc1ccc(Cl)cc1)NC(=O)c1ccc(Cl)cc1NS(=O)(=O)c1cccc2nccnc12 [Example 89, (S)-4-(4-Chloro-phenyl)-3-[4-chloro-2-(quinoxaline-5-sulfonylamino)-benzoylamino]-butyric acid]	63.1	7940	–	–
